Measurements from ChEMBL document CHEMBL3301361, “Experimental in vitro DMPK and physicochemical data on a set of publicly disclosed compounds”.
Converted amounts (≈) assume the structure as drawn.

Tests used:
physchem [1] = conditions: pH 7.4 buffer
physchem [2] = conditions: octan-1-ol/water
in vitro [3] = conditions: SD, HW or BN, rat, plasma
in vitro [4] = conditions: human, plasma

| Structure (SMILES) | fraction unbound at 5 h (in vitro [3]) | other results |
| --- | --- | --- |
| CC(C)(C)OC(=O)N1CCC(OCc2nc(-c3ccncc3)no2)CC1 | 0.0752 | solubility thermodynamic (physchem [1]): 269 µM (≈ 97 µg/mL); logD (physchem [2]; pH 7.4, LogD7.4): 3 |
| NCCCCN(Cc1nc2ccccc2[nH]1)C1CCCc2cccnc21 (stereo not given) | 0.371 | logD (physchem [2]; pH 7.4, LogD7.4): 0.83 |
| O=[N+]([O-])c1c(Nc2ccc(-n3cncn3)cc2)ncnc1N1CCC(Sc2ccccn2)CC1 | 0.0029 |  |
| COCCNCC(=O)NC12CC3CC(CC(C3)C1)C2 | 0.483 | fraction unbound at 5 h (in vitro [4]; PPB): 0.5 |
| O=C(Nc1cccc(Cl)c1)Nc1nnc(-c2ccncc2)s1 | 0.0046 |  |
| Cc1cccc2cc(CN(Cc3ccco3)C(=O)Nc3cccc(C#N)c3)c(Cl)nc12 | 0.0009 |  |
| Cc1ccc(-c2nnc(Nc3ccc(C(=O)N(C)C)cc3)c3ccccc23)cc1S(=O)(=O)N(C)C | 0.0209 |  |
| Cc1csc2c(N3CCN(C(=O)c4ccc(C(C)(C)C)cc4)CC3)ncnc12 | 0.0043 |  |
| COc1ccc(-c2nc(-c3ccccn3)no2)cc1 | 0.0544 |  |
| Fc1ccc(-c2cc(C(F)(F)F)nc(-n3cc(Cl)cn3)n2)cc1 | 0.0048 |  |
| Cc1ccc(S(=O)(=O)Nc2ccc3nc(C)sc3c2)cc1 | 0.0053 | fraction unbound at 5 h (in vitro [4]): 0.0021 |
| Cc1nc2ccc(NS(=O)(=O)c3ccc(C)c(C)c3)cc2s1 | 0.0024 |  |
| Cc1ccc(S(=O)(=O)N(C)c2ccc3sc(C)nc3c2)cc1 | 0.0067 |  |
| CCCC(=O)Nc1ccc(Cl)c(-c2nc3ncccc3o2)c1 | 0.0358 |  |
| CC(C)(C)OC(=O)NC[C@H]1CC[C@H](CNC(=O)c2cc(-c3ccc(CN)cc3)nc3ccccc23)CC1 | 0.0139 |  |
| CC(O)(C(=O)Nc1ccc(S(=O)(=O)N2CCOCC2)cc1)C(F)(F)F (stereo not given) | 0.151 | fraction unbound at 5 h (in vitro [4]; PPB): 0.371 |
| CCOc1ccc2oc(C(=O)NC(CCSC)c3nc4ccccc4[nH]3)c(C)c2c1 (stereo not given) | 0.009 |  |
| C[C@H](Nc1nc(Nc2cc(C3CC3)[nH]n2)c(F)cc1C#N)c1ccc(F)cc1 | 0.002 |  |
| O=c1[nH]c2c(O)ccc([C@@H](O)CNCCCOCCOCCc3ccccc3)c2s1 | 0.465 | logD (physchem [2]; pH 7.4, LogD7.4): 1.09 |
| CN(C)CCC1CCN(c2cc(C(=O)NC[C@H]3CC[C@H](COC(=O)NC(C)(C)C)CC3)c3ccccc3n2)CC1 | 0.0328 |  |
| CC(C)(C)OC(=O)NC[C@H]1CC[C@H](CNC(=O)c2ccnc(-c3ccccc3)c2)CC1 | 0.0095 |  |
| CC(C)(C)OC(=O)NC[C@H]1CC[C@H](CNC(=O)c2cc(-c3ccncc3)nc3ccccc23)CC1 | 0.02 |  |
| CC(C)(C)OC(=O)NC[C@H]1CC[C@H](CNC(=O)c2cc(-c3cccc(CN)c3)nc3ccccc23)CC1 | 0.0171 |  |
| CN(C)CCn1cc(-c2cc(C(=O)NC[C@H]3CC[C@H](CNC(=O)OC(C)(C)C)CC3)c3ccccc3n2)cn1 | 0.0647 |  |
| CC(C)(C)OC(=O)NC[C@H]1CC[C@H](CNC(=O)c2cc(N3CCC(CCN)CC3)nc3ccccc23)CC1 | 0.0321 |  |
| CC(C)(C)[C@@H](O)C(=O)N1CCC[C@H]1C(=O)NCc1cc(Cl)ccc1CN | 0.5 | fraction unbound at 5 h (in vitro [4]; PPB): 0.58 |

| Structure (SMILES) | fraction unbound at 5 h (in vitro [3]) | other results |
| --- | --- | --- |
| Nc1nc(-c2nn(Cc3ccccc3F)c3ncccc23)nc(N)c1N1CCOCC1 | 0.117 | fraction unbound at 5 h (in vitro [4]): 0.0768 |
| C[C@@H]1c2c([nH]c3ccc(C(F)(F)F)cc23)C[C@@H]2CCN(CCN3CCOCC3)C[C@H]21 | 0.0313 | logD (physchem [2]; pH 7.4, LogD7.4): 2.87 |
| O=C(c1ccc(-c2ccc(Cl)cc2)o1)N(Cc1ccccn1)c1ccc(N2CCNCC2)cc1 | 0.0219 | logD (physchem [2]; pH 7.4, LogD7.4): 3 |
| COCCNCc1cccc(CCNC[C@H](O)c2ccc(O)c3[nH]c(=O)sc23)c1 | 0.197 | logD (physchem [2]; pH 7.4, LogD7.4): 0.01 |
| CN(C(=O)Cc1ccc(S(C)(=O)=O)cc1)C1CCN(Cc2ccc(C(F)(F)F)cc2)CC1 | 0.16 | solubility thermodynamic (physchem [1]): 363 µM (≈ 170 µg/mL) |
| CCOc1ccc([C@@H](C)Nc2nc(N3CCN(C(C)=O)CC3)nc3c2CN(C(C)C)C3=O)cc1F | 0.258 | fraction unbound at 5 h (in vitro [4]; PPB): 0.334 |
| Nc1nc2ccc(C(=O)c3ccccc3)cc2[nH]1 | 0.0736 | logD (physchem [2]; pH 7.4, LogD7.4): 2.29 |
| Cc1ccc(NC(=O)c2cccc(N3CCOCC3)c2)cc1-n1cnc2ccc(N3CCN(C)CC3)cc2c1=O | 0.103 | solubility thermodynamic (physchem [1]): 427 µM (≈ 230 µg/mL); logD (physchem [2]; pH 7.4, LogD7.4): 2.69 |
| CN(Cc1ccc(-c2ccccc2S(N)(=O)=O)cc1)C(=O)[C@@H]1CCC[C@H]1C(=O)NCc1ccc(OC(F)(F)F)cc1 | 0.003 |  |
| COC[C@H](C)Oc1cc(O[C@@H](C)Cc2ccccc2)cc(C(=O)Nc2ccc(C(=O)O)cn2)c1 | 0.0042 | solubility thermodynamic (physchem [1]): 1480 µM (≈ 687 µg/mL); logD (physchem [2]; pH 7.4, LogD7.4): 1.5 |
| CC(C)C(NC(=O)c1cc(Cl)ccc1C(F)(F)F)C(=O)c1ccc([N+](=O)[O-])cc1 (stereo not given) | 0.024 |  |
| COc1cc(-n2cnc3cc(-c4ccc(Cl)cc4)sc3c2=O)ccc1OCCN1CCCC1 | 0.0099 | logD (physchem [2]; pH 7.4, LogD7.4): 2.74 |
| Cc1c(-c2cc3ccccc3o2)oc(=O)c(C)c1O | 0.0026 |  |
| C[S+]([O-])Cc1ccc(C(=O)Nc2cccnc2C(=O)NCC2CCC2)c2ccccc12 (stereo not given) | 0.0119 | fraction unbound at 5 h (in vitro [4]): 0.013 |
| COc1ccc(NC(=O)c2ccc(C[S+](C)[O-])c3ccccc23)c(C(=O)NCC2CCOCC2)n1 (stereo not given) | 0.0437 | fraction unbound at 5 h (in vitro [4]): 0.0544 |
| O=C(NCC1CCC1)c1nc(OCCOCCO)ccc1NC(=O)c1ccnc2ccccc12 | 0.03 |  |
| COc1ccc(NC(=O)c2ccnc3ccccc23)c(C(=O)NCC2CCC2)n1 | 0.0009 |  |
| CC(=O)N1CCN(c2nc(N[C@H](C)c3cnc4ccccc4c3)c3c(n2)C(=O)N(C(C)C)C3)CC1 | 0.0119 |  |
| O=S(=O)(Nc1ncns1)c1cc(F)c(Oc2cc(F)c(Cl)cc2-c2cn[nH]c2)cc1F | 0.002 |  |
| O=S(=O)(Nc1ncns1)c1cc(F)c(Oc2ccc(Cl)cc2-c2cn[nH]c2)cc1F | 0.001 |  |
| N#Cc1ccc2[nH]c(-c3ccc(F)cc3)c(CCCC(=O)NS(=O)(=O)C(F)(F)F)c2c1 | 0.0661 | solubility thermodynamic (physchem [1]): 309 µM (≈ 140 µg/mL) |
| O=[N+]([O-])c1ccc(-c2nc(-c3ccccc3)c(-c3ccccc3)[nH]2)cc1 | 0.0006 |  |
| C=CCN(C)CCCCCCOc1ccc(C(=O)c2ccc(Br)cc2)c(F)c1 | 0.0006 |  |
| N=C(N)c1ccc2nc(-c3cccc(-c4ccccc4)c3O)[nH]c2c1 | 0.0139 |  |
| O=C(Nc1ccccc1)Nc1nc(-c2ccccc2)cs1 | 0.0005 |  |
| O=C(c1cc(Cc2n[nH]c(=O)c3ccccc23)ccc1F)N1CCCNCC1 | 0.597 | logD (physchem [2]; pH 7.4, LogD7.4): 0.1 |

| Structure (SMILES) | fraction unbound at 5 h (in vitro [3]) | other results |
| --- | --- | --- |
| COc1cc2c(cc1OC)CN(CCc1ccc(NC(=O)c3cccc4c(=O)c5cccc(OC)c5[nH]c34)cc1)CC2 | 0.0179 |  |
| O=C(COc1cccc(Cl)c1)NC1CN(Cc2ccn(-c3ccc(C(F)(F)F)cc3)c2)C1 | 0.0043 |  |
| COc1cc(C(C)C)c(Oc2cnc(N)nc2N)cc1I | 0.0383 |  |
| O=C(CC1CCCCCC1)Nc1cccc2c(=O)n([C@H]3CCNC3)ccc12 | 0.232 | logD (physchem [2]; pH 7.4, LogD7.4): 1.15 |
| O=C(Cc1ccc(F)c(C(F)(F)F)c1)Nc1cccc2c(=O)n([C@@H]3CNC[C@H]3O)ccc12 | 0.0948 | logD (physchem [2]; pH 7.4, LogD7.4): 1.33 |
| C[C@@](O)(C(=O)Nc1ccc(S(C)(=O)=O)cc1Cl)C(F)(F)F | 0.16 | logD (physchem [2]; pH 7.4, LogD7.4): 2.08 |
| COc1ccc(CN2CCc3c([nH]c4ccccc34)C2)cc1OC | 0.0418 | solubility thermodynamic (physchem [1]): 51.3 µM (≈ 16.5 µg/mL); logD (physchem [2]; pH 7.4, LogD7.4): 3.1 |
| O=C(O)c1cc(O)cc(O)c1 [3,5-DIHYDROXYBENZOIC ACID] | 0.824 |  |
| COc1cc(F)c(C(C)C)cc1-c1ccc(C(F)(F)F)cc1CN1C(=O)O[C@H](c2cc(C(F)(F)F)cc(C(F)(F)F)c2)[C@@H]1C [ANACETRAPIB] | 0.0328 |  |
| C[C@@H](O[C@H]1OCCN(Cc2n[nH]c(=O)[nH]2)[C@H]1c1ccc(F)cc1)c1cc(C(F)(F)F)cc(C(F)(F)F)c1 [APREPITANT] | 0.0023 |  |
| CNC(=O)c1ccc(Oc2ccc3c(c2)CCN(C2CCC2)CC3)nc1 [GSK189254] | 0.523 | logD (physchem [2]; pH 7.4, LogD7.4): 1.45 |
| O=C(O)CCc1ccc(NCc2cccc(Oc3ccccc3)c2)cc1 [GW9508] | 0.0052 | logD (physchem [2]; pH 7.4, LogD7.4): 2.1 |
| O=C(O)Cc1cn(-c2ccccc2)nc1-c1ccc(Cl)cc1 [LONAZOLAC] | 0.0018 |  |
| CN1CCC(N2CCN(C(=O)[C@H](NC(=O)c3ccc4cc[nH]c4c3)c3ccccc3)CC2)CC1 [LY-517717] | 0.54 |  |
| NCCCCN(Cc1nc2ccccc2[nH]1)[C@H]1CCCc2cccnc21 [MAVORIXAFOR] | 0.244 |  |
| COc1nc(C)nc(Cl)c1N=C1NCCN1 [MOXONIDINE] | 0.886 |  |
| O=S(=O)(Nc1nncs1)c1cc(Cl)c(Oc2ccc(C(F)(F)F)cc2-c2ccnnc2)cc1F [PF-05186462] | 0.02 | logD (physchem [2]; pH 7.4, LogD7.4): 1.15 |
| O=c1[nH]c2ccccc2n1C1CCN(CCCC(c2ccc(F)cc2)c2ccc(F)cc2)CC1 [PIMOZIDE] | 0.003 |  |
| CC(C)NCC(O)COc1cccc2[nH]ccc12 (stereo not given) [PINDOLOL] | 0.586 | logD (physchem [2]; pH 7.4): -0.12 |
| CC(C)C[C@H](CN)CC(=O)O [PREGABALIN] | 0.5 |  |
| CC(CN1c2ccccc2Sc2ccccc21)N(C)C (stereo not given) [PROMETHAZINE] | 0.0705 | logD (physchem [2]; pH 7.4, LogD7.4): 2.67 |
| COc1ccccc1OCC(O)CN1CCN(CC(=O)Nc2c(C)cccc2C)CC1 (stereo not given) [RANOLAZINE] | 0.465 |  |
| CC[C@H](NC(=O)c1c(O)c(-c2ccccc2)nc2ccccc12)c1ccccc1 [TALNETANT] | 0.0005 | logD (physchem [2]; pH 7.4, LogD7.4): 3.91 |
| CCC(C)(C)C(=O)O[C@H]1C[C@@H](C)C=C2C=C[C@H](C)[C@H](CC[C@@H](O)C[C@@H](O)CC(=O)O)[C@H]21 [TENIVASTATIN] | 0.024 | logD (physchem [2]; pH 7.4, LogD7.4): 1.55 |
| CCc1nn(C2CCCC2)c2c1CCn1c(-c3cccs3)nnc1-2 [TOFIMILAST] | 0.0477 | solubility thermodynamic (physchem [1]): 22.4 µM (≈ 7.6 µg/mL) |
| Cc1ccc(OCC(O)C(C)NC(C)C)c2c1CCC2 (stereo not given) [ZENIDOLOL] | 0.216 |  |
